Experimental data reported in PubChem BioAssay (NCI).
Where “and” joins values, the source holds several entries; their conditions need not be identical. Equal entries are not always repeated.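 Five concentrations, 48 hours, 96-well plates. GI50 marks 50% less growth. TGI denotes the concentration required for complete inhibition of growth.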

What was measured:
Assay in all cases: NCI tumour cell line growth inhibition, 48 h
[1] = system: OVCAR-4 ovarian
[2] = system: HOP-62 NSCLC
[3] = system: SF-295 CNS
[4] = system: MALME-3M melanoma
[5] = system: HT29 colon
[6] = system: NCI/ADR-RES ovarian
[7] = system: EKVX NSCLC
[8] = system: CCRF-CEM leukemia
[9] = system: SW-620 colon
[10] = system: OVCAR-3 ovarian

Structure (SMILES) | TGI [1] | TGI [2] | TGI [3] | TGI [4] | TGI [5] | TGI [6] | TGI [7] | TGI [8] | TGI [9] | TGI [10] | GI50 [1] | GI50 [2] | GI50 [3] | GI50 [4] | GI50 [5] | GI50 [6] | GI50 [7] | GI50 [8] | GI50 [9] | GI50 [10]
CC(=O)OC12c3ccccc3-c3ccccc3C1C(C(=O)O)C2C(=O)O (configuration not stated) | > 10000 nM | > 10000 nM | > 10000 nM | 3090 nM | > 10000 nM | > 10000 nM | > 10000 nM | > 10000 nM | > 10000 nM | > 10000 nM |  |  |  |  |  |  |  |  |  | 
C[C@H]1CNC(=O)c2cnn3ccc(nc23)N[C@H](C)c2cc(F)ccc2O1 | 26600 nM | > 21500 nM | 8150 nM | > 100000 nM |  | 47400 nM | > 75400 nM | > 67200 nM | > 55100 nM | 19600 nM | 1670 nM | 1030 nM | 595 nM | 16600 nM | 457 nM | 8630 nM | 1240 nM | 444 nM | 517 nM | 1320 nM
COC(=O)Nc1nc2ccc(C(=O)c3ccccc3)cc2[nH]1 | > 100000 nM | > 100000 nM | > 60500 nM | > 100000 nM | 8210 nM and 11200 nM |  | > 100000 nM | > 100000 nM | > 100000 nM | 864 nM and 415 nM | 3880 nM and 3130 nM | 610 nM and 3190 nM | 400 nM and 255 nM | 559 nM and 201 nM | 363 nM and 260 nM | 346 nM and 357 nM |  | 398 nM and 458 nM | 410 nM and 259 nM | 324 nM and 172 nM
O=C(c1ccco1)c1c(C(F)(F)F)n([O-])c2cc(C(F)(F)F)ccc2[n+]1=O | 3940 nM | 1080 nM | 2830 nM | 3430 nM | 2840 nM | 4330 nM | 2360 nM | 352 nM | 1100 nM | 3130 nM | 1350 nM | 484 nM | 1290 nM | 1490 nM | 1250 nM | 801 nM | 859 nM | < 43.4 nM | 498 nM | 1430 nM
CC(C)=CC(=O)N[C@H]1CC[C@]2(C)C3CC[C@]4(C)C(C(C)N(C)C)=CCC4C3CCC2[C@H]1O (some centres not stated) | 20800 nM | 7490 nM | 9070 nM | 4230 nM | 2920 nM | 25500 nM | 23200 nM | 14300 nM | 4550 nM | 15700 nM | 5880 nM | 2610 nM | 2640 nM | 1890 nM | 676 nM | 10300 nM | 6380 nM | 2920 nM | 1970 nM | 4120 nM
CO[C@H]1C[C@](C)(O)Cc2cc3c(c(O)c21)C(=O)c1c(O)cc2c(c1C3=O)O[C@@H]1O[C@@]2(C)[C@H](O)[C@@H](N(C)C)[C@@H]1O | 3460 nM and 12600 nM | 2570 nM and 1500 nM | 1960 nM and 2140 nM | 3440 nM and 13300 nM | 5790 nM and 15600 nM | 27800 nM | 6500 nM and 13000 nM | 1220 nM and 4210 nM | 3870 nM and 7690 nM | 4030 nM and 8090 nM | 1870 nM | 480 nM | 513 nM |  | 1560 nM |  | 2400 nM | 180 nM | 847 nM | 1920 nM
C[C@]12CC[C@H]3[C@@H](CC4SC(N)=NC45C/C(=N/NC(N)=O)CC[C@]35C)[C@@H]1CCC2=O (some centres not stated) | 3170 nM | 3470 nM | 3030 nM | 3490 nM | 3730 nM | 3870 nM | 3630 nM | 1620 nM | 3390 nM | 3440 nM | 1740 nM | 1840 nM | 1610 nM | 1760 nM | 1880 nM | 1940 nM | 1800 nM | 280 nM | 1690 nM | 1870 nM
COC(=O)C(=O)C(C(=O)C(=O)Nc1ccccc1OC)c1nc2ccc([N+](=O)[O-])cc2[nH]c1=O (configuration not stated) | > 100000 nM | > 100000 nM | > 100000 nM | > 100000 nM | > 100000 nM | > 100000 nM | > 100000 nM | > 100000 nM | > 100000 nM | > 100000 nM |  |  |  |  |  |  |  |  |  | 
COC(=O)c1c2c(c(C)[n+]([O-])c1C)C(=O)C=C(NCc1cccc(Cl)c1)C2=O | 938 nM | 2800 nM | 1660 nM | 309 nM |  | 1790 nM | 2150 nM |  | 1230 nM | 665 nM | 210 nM | 1130 nM | 422 nM | 136 nM | 310 nM | 307 nM | 762 nM | 444 nM | 244 nM | 221 nM
CC(C)c1cccc(O)c(=O)c1 | > 100000 nM | > 75 µg/mL and > 100 µM | 71.6 µg/mL and > 100 µM | 48.3 µg/mL and > 81.2 µM |  | > 75 µg/mL |  |  | > 75 µg/mL and > 100 µM |  |  | 5.57 µg/mL | 2.52 µg/mL | 9.77 µg/mL | 1.34 µg/mL | 4.5 µg/mL | 1.45 µg/mL | 0.312 µg/mL | 3.56 µg/mL | 2.5 µg/mL
CCC1(OC(=O)CN)C(=O)OCc2c1cc1n(c2=O)Cc2cc3ccccc3nc2-1 (configuration not stated) | 994 nM and 4550 nM | 285 nM |  | 802 nM and 3750 nM | > 100000 nM | 137 nM and 77.6 nM | 17400 nM | 534 nM and 677 nM | > 100000 nM | 731 nM and 557 nM | 256 nM | 94.6 nM | 2.49 nM | 196 nM | 111 nM and 37.4 nM | 17.3 nM | 164 nM | 1.16 nM | 44.8 nM | 308 nM
